Like-named read-outs stand apart in the source and are kept apart here.
Experiments:
[1] = inhibition of nitrosomorpholine generation from morpholine and NaNO2 in vitro; conditions: 20 mg/ml
Experimental: EGCG, quercetin, catechin, vitamin C and powdered green tea were used as a control group. Each specimen was used in a concentration of 2.5, 5, 10, 15, 20 mg/ml. 200 mM of sodium nitrate not containing morpholine was used as a negative control. The specimen not containing the nitrosating agent NaNO2 was used as a blank in each reaction.
Each specimen was added into 15 ml of corning tubes according to concentration and marked with the blank, test, negative control. 1 ml of glacial acetic acid was added into each tube and 100 μl of 2 M NaNO2 was added into each tube except blank and distilled water was added to make total volume of 2 ml. After reacting for 10 minutes at 37° C., 176 μl of morpholine was added to make 2 M and the reaction was further carried out for 30 minutes at 37° C. The reaction was stopped by adding 3.8 ml of 5 N NaOH to set pH 10 to 12. According to DBA method, the specimens were measured and compared with blank group (not added NaNO2) and negative control group (not added morpholine and added 200 mM NaNO2).
Generation rate of nitrosomorpholine (NMOR %) is measured as below calculating formula 1. NMOR %=[(t0−blank)−(t30−blank)]/(t0−blank) (Calculating formula 1) • Blank; a specimen not containing nitrosating agent NaNO2 • t0; a specimen containing 200 mM of NaNO2 without morpholine • t30; a specimen normally reacted in the generation of nitrosomorpholine.

[2] = system: breast cancer, leukemia, uterus cancer, stomach cancer and colon cancer cell strain; conditions: cited from earlier work
[3] = biological target: T1, purified CYP 1A2 (Homo sapiens, UniProt P05177); assay: purified RECO System CYP 1A2 enzyme activity with methoxyresorufin
T1 sequence (P05177 2-516 limits assumed): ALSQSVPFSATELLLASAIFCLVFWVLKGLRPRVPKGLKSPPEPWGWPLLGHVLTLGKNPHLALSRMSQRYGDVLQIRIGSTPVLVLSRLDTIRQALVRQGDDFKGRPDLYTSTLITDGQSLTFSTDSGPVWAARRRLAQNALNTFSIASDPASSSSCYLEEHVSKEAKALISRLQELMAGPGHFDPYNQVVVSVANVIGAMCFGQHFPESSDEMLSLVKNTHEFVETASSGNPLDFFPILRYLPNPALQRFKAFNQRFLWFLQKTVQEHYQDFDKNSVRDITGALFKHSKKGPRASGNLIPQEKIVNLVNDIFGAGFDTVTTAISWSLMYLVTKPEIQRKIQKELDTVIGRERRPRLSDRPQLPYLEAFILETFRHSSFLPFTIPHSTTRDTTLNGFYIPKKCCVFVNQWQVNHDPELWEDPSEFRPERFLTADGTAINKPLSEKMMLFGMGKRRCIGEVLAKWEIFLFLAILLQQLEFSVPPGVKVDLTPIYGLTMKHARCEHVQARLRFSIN
Experimental: A composition of enzyme mixture comprises 0.5 uM CYP1A2, 0.2 μM NADPH P450 reductase, 0.5 μg/uL CHAPS, 0.1 μg/uL liposomes (dilauroyl phosphotidylcholine, dileoyl phosphotidylcholine, dilauroyl phosphotidylcholine (1:1:1)), 3 mM reductive glutathion, and 50 mM HEPES/KOH (pH 7.4). A buffer solution is 1 M potassium/sodium phosphate. 768 μl of tertiary distilled water, 126.7 μl of CYP 1A2 buffer solution, and 5.3 μl of 1 mM methoxyresorufin were added sequentially to make […] of solution and heated at 37° C. 5 μl of enzyme activation inhibiting material was added into 85 μl of buffer solution and substrate mixture to make final concentration 0.1, 0.5, 1.0, and 2.0 mg/ml respectively. The reaction started at 37° C. while adding 5 μl of CYP 1A2 enzyme mixture and 5 μl of 50 mM NADPH. The reaction was maintained for 20 minutes and stopped by adding 1 ml of methanol. The enzyme activity was measured by using a RF-5301 PC spectrofluoro photometer (SHIMADZU, Japan).

[4] = biological target: T2, CYP 1A2 (Rattus norvegicus, UniProt P04799)
T2 sequence (P04799 1-513): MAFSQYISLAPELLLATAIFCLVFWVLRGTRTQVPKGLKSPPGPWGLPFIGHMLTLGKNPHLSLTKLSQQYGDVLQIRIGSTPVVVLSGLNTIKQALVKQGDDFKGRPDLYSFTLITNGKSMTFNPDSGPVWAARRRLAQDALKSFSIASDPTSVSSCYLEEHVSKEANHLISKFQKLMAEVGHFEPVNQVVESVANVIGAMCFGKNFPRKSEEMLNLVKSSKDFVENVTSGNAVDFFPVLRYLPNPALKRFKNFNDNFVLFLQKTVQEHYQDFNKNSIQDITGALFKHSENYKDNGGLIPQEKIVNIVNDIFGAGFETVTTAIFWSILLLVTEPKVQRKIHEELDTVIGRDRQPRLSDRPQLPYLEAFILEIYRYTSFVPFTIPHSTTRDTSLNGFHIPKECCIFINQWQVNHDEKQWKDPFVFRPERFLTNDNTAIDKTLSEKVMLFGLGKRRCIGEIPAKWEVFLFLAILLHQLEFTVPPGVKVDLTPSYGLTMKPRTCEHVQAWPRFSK
Experimental: (§1) The present test measured the inhibition effect of CYP relating to NNK activation to various test materials after inducing CYP of a liver from a rat(Sprague-Dawley rat) by Aroclor 1254(Sigma, USA) and taking out the liver.
(§2) Aroclor 1254 was injected into the abdomen of a 7-week old male rat (Sprague-Dawley rat) in a capacity of 500 mg/kg. After 5 days, the liver was taken out in a sterile state and homogenized using 0.15M of KCl solution at 4° C. A supernatant was separated by a centrifugal separation for 10 minutes at 9000 g from the homogenate and used in the test. Activity of CYP was measured by using pentoxyresorufin(Sigma USA) which is a substrate of CYP 2B1/2/4, ethoxyresorufin(Sigma USA) which is a substrate of CYP 1A1 and methoxyresorufin(Sigma USA) which is a substrate of CYP 1A2. […] The inhibition effect for CYP activity was compared using the above reaction specimen (inhibition material), the supernatant taken out from the liver and specific substrate of each CYP. […] Each specimen has a concentration of 0.1, 0.5, 1.0 and 2.0 mg/ml and an amount of protein taken out from the liver is set to 500 μg/ml. Each substrate had 2.5 μM of stock solution and finally became 25 nM after adding 10 μl. […] The enzyme activity was measured by using a RF-5301 PC spectrofluoro photometer (SHIMADZU, Japan) from the supernatant (excitation at 522 nm and emission at 586 nm). […]

[5] = cited from earlier work
[6] = DPPH free radical scavenging
Experimental: 1.5 ml of DPPH was placed into a cuvette and 1.5 ml of antioxidant solution was added and evenly mixed. Right after mixing, the change of absorbance (523 nm) according to time was measured and the decomposition rate was calculated. Decomposition rate=(initial absorbance of DPPH−absorbance after adding each specimen according to time)/initial absorbance of DPPH×100 (Calculating formula 3)

[7] = biological target: T2, CYP 1A2; assay: MROD (methoxyresorufin dealkylase) activity in Aroclor 1254-induced rat liver supernatant
Experimental: as §1, §2

## O=c1c(O)c(-c2ccc(O)c(O)c2)oc2cc(O)cc(O)c12 [quercetin]
[1]
  inhibition of generating nitromorpholine from morpholine: ~75%
[2]
  concentration of quercetin at which propagation of cancer cell strain was inhibited: 10 µM
[3]
  order of inhibition of activity of purified CYP 1A2: EGCG>>the functional agent>>quercetin>>powdered green tea>>catechin
[4]
  order of inhibition of activity of CYP 1A2: quercetin>>the functional agent>>catechin≈powdered green tea

## CN1C(=O)CC[C@H]1c1cccnc1 [cotinine]
[5]; cotinine
  half period: 24 h

## O=C(O)CCC(=O)c1cccnc1 [ketoic acid]
[5]; in vivo
  share of ketoic acid metabolized to hydroxy acid and excreted as urine: 85%

## CN1CCCC1c1cccnc1 (stereo not drawn) [nicotine]
[5]; in vivo
  share of nicotine conversed into cotinine: 70-80%
  share of nicotine conversed into nicotine-1-N-oxide by FMO: 4%
  share of nicotine excreted as urine through metabolism: 80-90%
[5]; nicotine
  half period: 0.5 h

## epigallocatechin-3-gallate [EGCG]
[6]
  DPPH radical scavenging effect, comparison: two times higher than that of the functional agent and catechin
[3]; purified enzyme
  order of inhibition of activity of purified CYP 1A2: EGCG>>the functional agent>>quercetin>>powdered green tea>>catechin

## catechin
[1]
  inhibition of generating nitromorpholine from morpholine: ~75%
[7]
  order of inhibition of activity of CYP 1A2: quercetin>>the functional agent>>catechin≈powdered green tea
[3]; purified enzyme
  order of inhibition of activity of purified CYP 1A2: EGCG>>the functional agent>>quercetin>>powdered green tea>>catechin
